Results published in patent publication US20190192427A1, “AZOLE COMPOUND OPHTHALMIC PREPARATION” (BIOTOOL, LLC, priority 2016, published 2019).

Assays:
nuclear cataract = experiment: Rat sodium selenite (senile/nuclear) cataract model, eye drops, lens opacity phase by slit lamp; format: in vivo, Wistar rats; conditions: 10 suffering eyes per group, about 20 μL three times a day, 10 weeks
Method: (§1) Rat model of cataract was made: Wistar rats 12 days after birth were selected, male or female, modeled with sodium selenite (senile cataract), each rat was injected subcutaneously in the back neck according to 20 umol/kg body weight. Acupuncture was used to model adult rats (traumatic cataract).
(§2) The opacity of the lens was observed using a slit lamp, and the lens opacity is generally classified into phase 0-V.
(§3) phase 0—Lens are transparent;
(§4) phase I—The cortex around the lens is scattered in small vacuoles;
(§5) phase II—The cortex around the lens is in ring-shaped dense medium vacuoles;
(§6) phase III—Other parts of cortex are in flaky turbidity;
(§7) phase IV—Lens nucleus and perinuclear cortex are turbid;
(§8) phase V—The lens is completely turbid.
(§9) After 3 days of modeling, econazole eye drops were administered three times a day including morning, noon, and evening, at intervals of at least 5 hours. Every group was made up of 10 cases of cataract suffering eyes involved in the test. The mode of administration was directly dropping to the eye to ensure that the drug was completely dripped into the eye. Each case of suffering eye receiving treatment was administrated one drop at a time with an amount of about 20 μL, and was continuously administrated for 10 weeks. All cataract suffering eyes in different treatment groups were observed and judged for signs of symptom ease or symptom relief.

traumatic cataract = experiment: Rat acupuncture (traumatic) cataract model, eye drops, lens opacity phase by slit lamp; format: in vivo, rats; conditions: 10 suffering eyes per group, about 20 μL three times a day, 10 weeks
Method: as §1, §2, §3, §4, §5, §6, §7, §8, §9

[1] = Tolerance of eye drops in cataract rats during treatment; format: in vivo, rat; conditions: eye drops three times a day, 10 weeks
Method: as §9

Clc1ccc(COC(Cn2ccnc2)c2ccc(Cl)cc2Cl)cc1 (stereo not shown) [econazole, Econazole]
number of eyes in phase 0 (nuclear cataract): 6 | number of eyes in phase I (nuclear cataract): 0 | number of eyes in phase II (nuclear cataract): 0 | number of eyes in phase III (nuclear cataract): 0 | number of eyes in phase IV (nuclear cataract): 4 | number of eyes in phase V (nuclear cataract): 0 | number of eyes in phase 0 (traumatic cataract): 4 | number of eyes in phase I (traumatic cataract): 5 | number of eyes in phase II (traumatic cataract): 1 | number of eyes in phase III (traumatic cataract): 0 | number of eyes in phase IV (traumatic cataract): 0 | number of eyes in phase V (traumatic cataract): 0 | discomfort or ocular allergic reaction throughout the treatment [1]: No rat has discomfort or ocular allergic reaction
